Columns and labels:
HeLa cells = test: In-vitro evaluation of E7C71A9, Compound A, B, C as Luc-mRNA vector (Embodiment 27, Table 14); type: cell-based; settings: Luc-mRNA 100 ng/well, 16-20 h, relative to Lipofectamine3000, lipid:DSPC:cholesterol:PEG2000-DMG 43:10.5:45:1.5
From the text: • Cell line: HeLa cell line • Culture medium: 1640 […] supplemented with 10% fetal calf serum • Screening form: 96-well plate cell transfection • Detection: fluorescence intensity detection by a multifunctional microplate reader. According to manufacturer's instructions, Lipofectamine3000 was used as a positive control group. • Method: a pipette was used for sample addition. The shown content is the content of a single well of a 96-well plate.
1. Synthesis of E7C71A9, Compound A, Compound B, and Compound C was performed as described above. And these four ionizable amino lipid compounds were respectively mixed with DSPC, cholesterol and PEG2000-DMG into absolute ethyl alcohol. according to a mole ratio of 43:10.5:45:1.5, The Luc-mRNA was dissolved into a sodium acetate buffer solution ([…], pH=5.0). The mixed lipid solution was taken out by a pipette, and was added into the Luc-mRNA solution to be sufficiently mixed. A proportion ratio of the ethyl alcohol solution to the sodium acetate buffer solution ([…], pH=5.0) was controlled to be 1:3, and a nanoparticle solution was prepared. A mass ratio of the amino lipid compound to luciferase mRNA (Luc mRNA) was about 10:1, and the mRNA consumption in each well was 100 ng.
2. After the lipid nanoparticle solution was incubated for 30 min at room temperature, 100 μL of fresh resuspended HeLa cells (1×10^4 cells) were added into each well of a 96-well all-white ELISA plate. Then, the lipid nanoparticle solution was added into the 96-well plate (10 μL for each well) by a pipette. The solution was placed into a 37° C. incubator containing 5% CO2 to be incubated.
3. After 16 h to 20 h of cell initial transfection, a substrate ONE-Glo™ Luciferase was added into cells at 100 μL/well, and after 2 min, detection was performed by a multifunctional or multimode microplate reader.
4. The relative transfection efficiency was calculated as follows: Relative transfection efficiency (%)=fluorescence intensity of LNP/fluorescence intensity of Lipofectamine3000×100%.

BMDC primary cells [1] = test: Luc mRNA LNP transfection of the four amino lipids on BMDC primary cells (Embodiment 28, Table 15); type: cell-based, C57BL/6 mice; settings: Luc mRNA LNP 10 μL per well, 16 h, ONE-Glo Luciferase
Protocol: Preparation method: the same as that described above.
Animal preparation: 6-week-old female C57BL/6 mice with the body weight about 20 g were selected. The feeding environment was an SPF stage feeding room. Animal tests were strictly performed according to the guide of the national health institute and the animal ethics requirements.
(§1) Cell acquisition: C57BL/6 mice were killed through cervical dislocation, and were soaked for 5 min in 75% ethyl alcohol. Dissection was performed to obtain thigh and calf tibiae of the mice. Attached muscles were removed to expose sclerotin. Then, bone marrow in tibiae was blown out by using a 1 mL injector sucked with PBS. After the bone marrow was blown away, impurities were filtered away by a 50 μm filter screen. A red blood cell lysis buffer (3-4 mL) was added into an obtained filtrate. Then, after placement for 5 min, 800 g centrifugation was performed for 5 min to remove the supernatant. The obtained cells were placed into a 1640 culture medium (containing 10% fetal calf serum, 20 ng/mL GMCSF and 10 ng/ml IL4) to be resuspended, and were inoculated into a 6-well plate at an inoculation density of 100000 cells/ml culture medium. The materials were placed into a 37° C. cell incubator containing 5% CO2. Half liquid change was performed once every 2 days. Suspended cells and loose wall attached cells were collected on the seventh day, and were per well, and the volume of a culture medium was 100 μL.
(§2) Cell transfection: lipid nanoparticles coated with luciferase mRNA were added into a 96-well all-white ELISA plate laid with primary cells. The adding volume of the mRNA lipid nanoparticles in each well was controlled to be 10 μL. Then, the materials were put into a 37° C. incubator containing 5% CO2 for 16 h.
Transfection efficiency detection: 20 μL of a substrate ONE-Glo™ Luciferase was added into each well of a 96-well all-white ELISA plate. After 1 min, detection was performed by a multifunctional or multimode microplate reader. DLin-MC3 was used as a control.

endosome/lysosome = settings: background statement; cited from earlier work
B16-OVA melanoma cells [2] = test: OVA mRNA LNP vaccine, in-vivo immunity and tumor treatment (Embodiment 15); parameters: species or system C57BL/6 mice; settings: B16-OVA tumor-bearing mice, two intramuscular injections of LNP with 1 μg OVA-mRNA, 7 days apart
Protocol: Preparation method: the amino lipid compounds of the disclosure, DSPC, cholesterol and PEG2000-DMG were mixed according to a mole ratio of 50:10:38.5:1.5 and were dissolved in absolute ethyl alcohol. OVA mRNA was dissolved in a sodium acetate buffer solution (50 nM, pH=4.0). The obtained ethyl alcohol solution and the acetate buffer solution […] were mixed in a micro-fluidic chip according to a volume ratio of 1:3 by using a micro-fluidic preparation system to obtain lipid nanoparticles. Then, dialysis was performed for 6 h under the conditions of 1×PBS and temperature was controlled at 4° C. by using a dialysis cassettes or box (MWCO 20,000). Filtration was performed by a 0.22 μm microporous filtering membrane prior to use. The mass ratio of the amino lipid compound to OVA mRNA was about 10:1.
(§3) Animal preparation: 5-6-week-old female C57BL/6 mice with the body weight about 18 to 20 g were selected. The feeding environment was an SPF stage feeding room. Animal tests were strictly performed according to the guide of the national health institute and the animal ethics requirements.
(§4) In-vivo delivery: B16-OVA melanoma cells (1.5×10^5) were injected to the outer thighs of the mice through subcutaneous injection. When the tumor grew to 50 mm^3 (on the about 6th or 7th day after tumor inoculation), the mice began to inoculated vaccines, the animals were subjected to twice immunization through intramuscular injection of an LNP preparation containing 1 μg OVA-mRNA. An interval between first and second injections was 7 days. The tumor growth was measured for 3 times every week by a digital display calliper, and a calculation formula was […]. When the tumor size reached 1500 mm^3, the mice received euthanasia. Additionally, 60% of mice (E7C71A9 group) and 40% of mice (E6C71A12 group) respectively reached the complete relieving effect.

BMDC primary cells [3] = test: Luc mRNA LNP transfection on BMDC primary cells (Embodiment 13, Table 3); type: cell-based, C57BL/6 mice; settings: 16 h, ONE-Glo Luciferase
How it was run: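 Bone-marrow dendritic cells from female C57BL/6 mice were cultured 7 days with GM-CSF (20 ng/mL) and IL-4 (10 ng/mL). Cells were then exposed to luciferase mRNA LNPs for 16 h at 37° C., 5% CO2. Transfection was read as ONE-Glo luminescence.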

B16-OVA melanoma cells [4] = test: OVA mRNA LNP vaccine, in-vivo immunity and tumor treatment (Embodiment 23); parameters: species or system C57BL/6 mice; settings: B16-OVA tumor-bearing mice, two intramuscular injections of LNP with 5 μg OVA-mRNA, 7 days apart
Protocol: Preparation method: the amino lipid compounds of the disclosure, DSPC, cholesterol and PEG2000-DMG were mixed according to a mole ratio of 50:10:38.5:1.5 in absolute ethyl alcohol. OVA mRNA was dissolved in a sodium acetate buffer solution (50 nM, pH=4.0). The ratio of the ethyl alcohol solution to the acetate buffer solution (50 nM, pH=4.0) was controlled to be 1:3 by using two micro-injection pumps to prepare a coarse solution of the lipid nanoparticles in a micro-fluidic chip. Then, dialysis was performed for 6 h under the conditions of 1×PBS and temperature control at 4° C. by using a dialysis cassettes or box (MWCO 20,000). Before use, filtration was performed by a 0.22 μm microporous filtering membrane. A mass ratio of the amino lipid compound to OVA mRNA was about 8:1.
as §3
as §4, with “containing 5” for “containing 1”, “euthanasia.” for “euthanasia. Additionally, 60% of mice (E7C71A9 group) and 40% of mice (E6C71A12 group) respectively reached the complete relieving effect.”

BMDC primary cells [5] = test: Luc mRNA LNP transfection on BMDC primary cells (Embodiment 21, Table 9); type: cell-based, C57BL/6 mice; settings: 16 h, ONE-Glo Luciferase
Protocol: Preparation method: the same as that in Embodiment 17.
Animal preparation: 6-week-old female C57BL/6 mice with the body weight about 20 g were selected. A feeding environment was an SPF stage feeding room. Animal tests were strictly performed according to the guide of the national health institute and the animal ethics requirements.
as §1, with “to remove a supernatant. The” for “to remove the supernatant. The”, “and 10 ng/mL IL4) to” for “and 10 ng/ml IL4) to”, “and were inoculated to a 96-well all-white ELISA plate at the inoculation density of 20000 cells per well,” for “and were per well,”
as §2, with “white” for “all-white”
Transfection efficiency detection: 20 μL of a substrate ONE-Glo™ Luciferase was added into each well of a 96-well all-white ELISA plate, and after 1 min, detection was performed by a multifunctional or multimode microplate reader.

CCCCCCCCCCC(CCOC(=O)C(CCCCCC)CCCCCCCC)OC(=O)CCCN(C)C (stereo not drawn) [Compound A, 3-((4-(dimethylamino)butanoyl)oxy)tridecyl 2-hexyldecanoate]
Relative Transfection Efficiency (HeLa cells): 0.62 | Fluorescence intensity (transfection expression intensity) (BMDC primary cells [1]): 4.9E+04

CCCCCCCCCCC(CCCOC(=O)C(CCCCCC)CCCCCCCC)OC(=O)CCCN(C)C (stereo not drawn) [Compound B]
Relative Transfection Efficiency (HeLa cells): 0.45 | Fluorescence intensity (transfection expression intensity) (BMDC primary cells [1]): 2.5E+04

CCCCCCCCCCC(CCCCOC(=O)C(CCCCCC)CCCCCCCC)OC(=O)CCCN(C)C (stereo not drawn) [Compound C]
Relative Transfection Efficiency (HeLa cells): 0.39 | Fluorescence intensity (transfection expression intensity) (BMDC primary cells [1]): 9.3E+03

CCCCC/C=C\C/C=C\CCCCCCCCC(CCCCCCCC/C=C\C/C=C\CCCCC)OC(=O)CCCN(C)C [DLin-MC3, DLin-MC3-DMA]
RNA that escapes from the endosome/lysosome (endosome/lysosome): 1%-4%

CCCCCCCCCCC(COC(=O)C(CCCCCC)CCCCCCCC)OC(=O)CCCN(C)C (stereo not drawn) [E7C71A9, 2-((4-(Dimethylamino)Butanoyl)Oxy) Dodecyl 2-Hexyldecanoate]
Relative Transfection Efficiency (HeLa cells): 2.0 | Fluorescence intensity (transfection expression intensity) (BMDC primary cells [1]): 8.8E+04 | mice that reached the complete relieving effect (B16-OVA melanoma cells [2]): 60% | result (survival curve, FIG. 4) compared with MC3 group (B16-OVA melanoma cells [2]): obviously superior to that of MC3 group | tumor growth speed compared with MC3 group (FIG. 3) (B16-OVA melanoma cells [2]): obviously lower than that of MC3 group | Luciferase luminescence intensity (BMDC primary cells [3]): 8.8E+ 04

CCCCCCCCCCC(COC(=O)C(CCCCCCCC)CCCCCCCC)OC(=O)CCCCN(C)C (stereo not drawn) [E7C115A11]
mice tumors completely disappeared (B16-OVA melanoma cells [4]): 90% | survival rate (B16-OVA melanoma cells [4]): 100% | survival rate compared with MC3 group (FIG. 6) (B16-OVA melanoma cells [4]): obviously superior to that of MC3 group | tumor growth speed compared with MC3 group (FIG. 5) (B16-OVA melanoma cells [4]): obviously lower than that of MC3 group | Luciferase luminescence intensity (BMDC primary cells [5]): 2.4E+05

Source: US12679801B2, “Amino lipid and preparation method and application thereof” (Shenzhen MagicRNA Biotechnology Co., Ltd., priority 2022, dated 2026)
